Literature values as cited in PubChem BioAssay AID1259409 (Chemical Carcinogenesis Research Information System (CCRIS), 2018).

Tested on: rodent chemically induced tumor inhibition, incidence and multiplicity
Experiment: CCRIS tumor inhibitor studies
Settings: Dose [Inhibitor]: 0, Species: RAT, Strain/Sex: F344/MALE; for tumour outcome (control, treated, inhibition, significance): Carcinogen: AZOXYMETHANE (25843-45-2), Route [Inhibitor]: ORAL, Dose [Carcinogen]: 15 MG/KG BW 1 INJECTION/WK FOR 3 WK, Promoter: NONE USED
Excerpt: The CCRIS database contains chemical records with carcinogenicity, mutagenicity, tumor promotion, and tumor inhibition test results. It was developed by the National Cancer Institute (NCI). Data are derived from studies cited in primary journals, current awareness tools, NCI reports, and other sources. Test results have been reviewed by experts in carcinogenesis and mutagenesis.
CCRIS provides historical information from the years 1985 - 2011. It is no longer updated.
This is an archive assay for CCRIS tumor inhibitor studies.

## C=C(C)[C@H]1Cc2c(ccc3c2O[C@@H]2COc4cc(OC)c(OC)cc4[C@@H]2C3=O)O1
500 PPM IN DIET FOR 4 WK, BEGINNING 1 WK BEFORE THE FIRST CARCINOGEN DOSE (STUDY DURATION: 38 WK), Target Tissue: Type of Lesion: LARGE INTESTINE: ADENOCARCINOMA
  tumour outcome (control, treated, inhibition, significance): 9/15 (60%), 6/19 (32%), 47%, not significant
500 PPM IN DIET FOR 4 WK, BEGINNING 1 WK BEFORE THE FIRST CARCINOGEN DOSE (STUDY DURATION: 38 WK), Target Tissue: Type of Lesion: LARGE INTESTINE: ADENOMA
  tumour outcome (control, treated, inhibition, significance): 4/15 (27%), 2/19 (11%), 59%, not significant
500 PPM IN DIET FOR 4 WK, BEGINNING 1 WK BEFORE THE FIRST CARCINOGEN DOSE (STUDY DURATION: 38 WK), Target Tissue: Type of Lesion: SMALL INTESTINE: ADENOCARCINOMA
  tumour outcome (control, treated, inhibition, significance): 4/15 (27%), 1/19 (5%), 81%, not significant
500 PPM IN DIET FOR 4 WK, BEGINNING 1 WK BEFORE THE FIRST CARCINOGEN DOSE (STUDY DURATION: 38 WK), Target Tissue: Type of Lesion: SMALL INTESTINE: ADENOMA
  tumour outcome (control, treated, inhibition, significance): 1/15 (7%), 0/19 (0%), 100%, not significant
500 PPM IN DIET FOR 34 WK, BEGINNING 1 WK AFTER THE LAST CARCINOGEN DOSE (STUDY DURATION: 38 WK), Target Tissue: Type of Lesion: LARGE INTESTINE: ADENOCARCINOMA
  tumour outcome (control, treated, inhibition, significance): 9/15 (60%), 3/16 (19%), 68%, p= 0.0226
500 PPM IN DIET FOR 34 WK, BEGINNING 1 WK AFTER THE LAST CARCINOGEN DOSE (STUDY DURATION: 38 WK), Target Tissue: Type of Lesion: LARGE INTESTINE: ADENOMA
  tumour outcome (control, treated, inhibition, significance): 4/15 (27%), 1/16 (6%), 78%, not significant
500 PPM IN DIET FOR 34 WK, BEGINNING 1 WK AFTER THE LAST CARCINOGEN DOSE (STUDY DURATION: 38 WK), Target Tissue: Type of Lesion: SMALL INTESTINE: ADENOCARCINOMA
  tumour outcome (control, treated, inhibition, significance): 4/15 (27%), 1/16 (6%), 78%, not significant
500 PPM IN DIET FOR 34 WK, BEGINNING 1 WK AFTER THE LAST CARCINOGEN DOSE (STUDY DURATION: 38 WK), Target Tissue: Type of Lesion: SMALL INTESTINE: ADENOMA
  tumour outcome (control, treated, inhibition, significance): 1/15 (7%), 0/16 (0%), 100%, not significant
Carcinogen: DIETHYLNITROSAMINE, 0.005, 0.5, 500 PPM FOR 11 OR 43 WK BEGINNING 1 WK AFTER CARCINOGEN (STUDY DURATION: 45 WK), 0.005, 0.5, 500 PPM FOR 11 OR 43 WK BEGINNING 1 WK AFTER CARCINOGEN (STUDY DURATION: 45 WK), Route [Inhibitor]: DIET, Target Tissue: Type of Lesion: LIVER: HEPATOCELLULAR CARCINOMA, HEPATOCELLULAR ADENOMA, Dose [Carcinogen]: 100 MG/KG BW TWICE AT 1 WK INTERVALS (STUDY DURATION: 45 WK)
  outcome: 60; 35; 65; 100: 55; 65; 50; 100
